Data from US20110212078A1, “SYNTHESIS AND USE OF HETEROCYCLIC ANTIBACTERIAL AGENTS” (priority 2008, published 2011).

target: T1, LpxC enzyme (Escherichia coli, UniProt P0A725); test: standard LpxC assay (RapidFire high-throughput mass spectrometry); format: biochemical; conditions: 0.2 nM LpxC enzyme, 1.0 μM UDP-3-O-(R-3-hydroxymyristoyl)-N-acetylglucosamine, 60 minutes at room temperature; read-out: E. coli IC50
T1 sequence (P0A725 1-305): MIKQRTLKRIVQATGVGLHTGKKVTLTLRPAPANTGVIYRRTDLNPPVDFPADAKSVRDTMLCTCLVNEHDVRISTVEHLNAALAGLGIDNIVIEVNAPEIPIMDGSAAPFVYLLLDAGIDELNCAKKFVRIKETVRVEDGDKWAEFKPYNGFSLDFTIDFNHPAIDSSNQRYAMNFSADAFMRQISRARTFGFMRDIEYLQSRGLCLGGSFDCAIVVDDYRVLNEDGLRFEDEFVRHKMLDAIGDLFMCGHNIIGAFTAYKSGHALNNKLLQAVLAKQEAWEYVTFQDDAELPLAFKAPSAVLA
Protocol: The standard LpxC assay consists of 0.2 nM LpxC enzyme, 1.0 μM UDP-3-O—(R-3-hydroxymyristoyl)-N-acetylglucosamine, and test compound, in assay buffer and 2% DMSO. Assay buffer is comprised of 25 mM HEPES, pH 7.3, 150 mM NaCl, 2.0 mM DTT, and 0.01% BSA. The enzyme reaction is carried out in a 96-well assay plate, in a final volume of […]. Solutions of test compounds are prepared in 100% DMSO. Reaction additions, in order, are (1) 2.0 μL compound solution, (2) 80 μL of assay buffer, (3) […] of 10 μM UDP-3-O—(R-3-hydroxymyristoyl)-N-acetylglucosamine (in assay buffer) and, (4) 10 μL of LpxC enzyme (20 nM in assay buffer) to initiate the reaction. In positive control reactions, addition (1) has 2.0 μL of 100% DMSO (without compound); these reactions are used as the total signal (TSB) value. Reactions are incubated at room temperature for 60 minutes when 10 μL of 1 N HCl is added to stop the reaction. The plate is shaken by hand for 10 seconds to ensure complete quenching. Assay plates are sealed with foil tape, and stored at −80° C. for 24-48 hr prior to analysis.
The concentrations of substrate and product in the reaction mixtures are determined with BioTrove's proprietary RapidFire™ high-throughput mass spectrometry (HTMS). Assay mixtures are partially purified with reverse phase chromatography, where they are washed with water containing 5 mM ammonium formate and eluted onto the mass spectrometer in 80% acetonitrile, 20% water, and 5 mM ammonium formate. The mass spectrometry peak areas of the substrate and product are measured to determine the concentration of these analytes. The assay signal is the percentage of substrate that is converted to product. Percent inhibition, % I, in test samples is determined from the following equation: […]
Using this method, the following E. coli IC50 (nM) data were obtained for selected Compounds of Formula (I);

`C[C@@H](O)[C@@H](C(=O)NO)N1Cc2cc(N3CCC(c4ccc(-c5ccccc5)cc4)CC3)ccc2C1=O` [Compound 53] and `C[C@@H](O)[C@@H](C(=O)NO)N1Cc2cc(-c3ccc(-c4ccccc4)cc3)ccc2C1=O` [Compound 32] cannot be ordered by IC50: under 5 µM for the first, under 0.05 µM for the second.

`C[C@@H](O)[C@@H](C(=O)NO)N1Cc2cc(C#Cc3ccccc3)ccc2C1=O` [Compound 11] and `C[C@@H](O)[C@@H](C(=O)NO)N1Cc2ccc(C#Cc3ccccc3)cc2C1=O` [Compound 20] cannot be ordered by IC50: under 5 µM for the first, under 5 µM for the second.

`C[C@@H](O)[C@@H](C(=O)NO)N1CC2CN(Cc3ccc(C#Cc4ccccc4)cc3)CCN2C1=O` (stereo partly shown) [Compound 88] and `C[C@@H](O)[C@@H](C(=O)NO)N1CC2CN(c3ccc(C#Cc4ccccc4)cc3)CCN2C1=O` (stereo partly shown) [Compound 91] cannot be ordered by IC50: under 5 µM for the first, under 5 µM for the second.

`CC(O)C(C(=O)NO)n1[nH]c2cc(C#Cc3ccccc3)ccc2c1=O` (stereo not shown) [Compound 65] and `CC(O)C(C(=O)NO)N1C(=O)c2ccc(C#Cc3ccccc3)cc2C1=O` (stereo not shown) [Compound 74] cannot be ordered by IC50: under 5 µM for the first, under 5 µM for the second.

`C[C@@H](O)[C@@H](C(=O)NO)N1Cc2cc(N3CCN(c4ccc(C(=O)Cc5ccccc5)cc4)CC3)ccc2C1=O` [Compound 50] and `C[C@@H](O)[C@@H](C(=O)NO)N1Cc2cc(N3CCN(c4ccccc4)CC3)ccc2C1=O` [Compound 52] cannot be ordered by IC50: under 5 µM for the first, under 5 µM for the second.

`C[C@@H](O)[C@@H](C(=O)NO)N1Cc2cc(C#Cc3cccc(-c4ccccc4)c3)ccc2C1=O` [Compound 14] and `C[C@@H](O)[C@@H](C(=O)NO)N1Cc2cc(C#Cc3ccc(-c4ccccc4)cc3)ccc2C1=O` [Compound 13] cannot be ordered by IC50: under 5 µM for the first, under 0.05 µM for the second.

`C[C@@H](O)[C@@H](C(=O)NO)N1Cc2cc(-c3ccc(C#Cc4ccccc4)cc3)ccc2C1=O` [Compound 36] and `C[C@@H](O)[C@@H](C(=O)NO)N1Cc2cc(Cc3ccc(-c4ccccc4)cc3)ccc2C1=O` [Compound 31] cannot be ordered by IC50: under 0.05 µM for the first, under 0.05 µM for the second.

`C[C@@H](O)[C@@H](C(=O)NO)N1Cc2cc(Br)ccc2C1=O` [Compound 12] and `C[C@@H](O)[C@@H](C(=O)NO)N1Cc2ccc(Cl)cc2C1=O` [Compound 21] cannot be ordered by IC50: under 5 µM for the first, under 5 µM for the second.

`C[C@@H](O)[C@@H](C(=O)NO)N1Cc2cc(-c3ccccc3)ccc2C1=O` [Compound 26] and `CC(O)C(C(=O)NO)N1C(=O)c2ccc(-c3ccccc3)cc2C1=O` (stereo not shown) [Compound 79] cannot be ordered by IC50: under 5 µM for the first, under 5 µM for the second.

Work on `CC(O)C(C(=O)NO)N1C(=O)c2ccc(Br)cc2C1=O` (stereo not shown) [Compound 80] yielded an IC50 of under 5 µM.
